“Also recorded” adds a separate entry of the source.
Assays:
Type in all cases: cell-based
[1] = tested on: SW620 cells (with RASG12V mutation); assay: Crystal violet cytotoxicity test (IC50) in KRASG12V positive cells; conditions: for toxicity towards KRASG12V positive cells (SW620) compared to normal cells (NIH/3T3): ratio from IC50 values, crystal violet test, 72 hours incubation; for toxicity against cancer cells expressing KRASG12V: summary statement
Source text: IC50 (half-maximal inhibitory concentration) is the concentration value of a tested compound which inhibits biochemical and biological functions of cells in half of the tested population. Determining this indicator is extremely important for assessing the cytotoxicity of molecules with therapeutic potential.
The first step in developing the methodology for determining IC50 was to conduct density tests to determine the appropriate number of cells to use in cytotoxicity tests. The different content of bovine fetal serum in the culture medium was also investigated to rule out any potential impact on the reduction in cell count, regardless of the analyzed molecules.
(§1) As a research model, colon cancer and lung cancer cell lines (sensitive lines) were used, including SW620, SW480, and COR-L23, respectively, which are characterized by the KRASG12V gene mutation and lack of other alterations in genes belonging to the RAS protein signaling pathway, as well as a stable line of normal cells (mouse fibroblasts), which serve as a platform for evaluating the impact of tested compounds on non-cancer cells. Below is the result for one of the analyzed cell lines with the mutation. Similar differences in IC50 values compared to normal cells were obtained for the other cell lines mentioned above with the RASG12V mutation.
(§2) The effect of molecules on the biology of selected cell lines to assess their cytotoxicity using the IC50 indicator was carried out according to the protocol below: • 1. The cells of the tested lines were seeded in wells of a 96-well plate at specified densities. • 2. After seeding, the cells were subjected to a 24-hour incubation in medium with a 1% and 2.5% addition of serum (sensitive lines) or in medium with a 0.5% addition of serum (normal line). • 3. The cells were exposed to selected molecules at selected concentrations. The control was provided by the culture medium without any added compounds. Concentrations of the tested molecules [uM]: • □ NIH3T3: 500; 250; 125; 62,5; 31,25 • □ SW620: 60; 30; 15; 7,5; 3,75 • 4. After 72 hours of incubation, the culture medium was removed and the cells were washed twice with buffer saline solution (PBS). Then, the cells were incubated for 10 minutes with a 0.1% solution of crystal violet at room temperature (Merck Millipore). • 5. After 10 minutes, the crystal violet solution was removed and the wells of the 96-well plate were washed twice with PBS solution. • 4. 50% ice-cold acetic acid solution was added to each well and incubated again for 10 minutes at room temperature on a shaker at 650 rpm. • 5. Absorbance measurement was performed using a plate reader, at a wavelength of λ = 540 nm

[2] = tested on: NIH/3T3 cell line - immortalized mouse fibroblasts; assay: Crystal violet cytotoxicity test in normal cells; conditions: summary statement; normal cells NIH/3T3 and PER49
Source text: To evaluate the toxicity of the tested compound on normal cells, the NIH/3T3 cell line - immortalized mouse fibroblasts and normal pericytes (PER49) were used.
as §1, §2

[3] = tested on: PER49 cell line; assay: Western Blot analysis of the RAS-controlled signal transduction pathway in a normal cell line; conditions: normal PER49 cell line without KRASG12V; 10, 15 and 20 µM; 24 hours; serum-free; ERK, p-ERK, Akt, pAkt blots
Source text: Analysis of the impact of the studied compound on the signal transduction pathway controlled by RAS family proteins in normal cell lines based on Western Blot analysis.
The example illustrates the impact of the PER154A and PER160A molecules on the signal transduction pathway in the normal PER49 cell line.
• 1. PER49 cell line cells at 80-90% confluency were rinsed with phosphate-buffered saline without Mg2+ and Ca2+ ions. Remove PBS. • 2. Cells were detached from the vessel using Trypsin-EDTA (0.05%, 1x) for 1-3 minutes at 37°C. • 3. Cells were transferred to a 15 ml tube, centrifuged (200xg, 4 minutes) and suspended in RPMI1640 medium with 10% bovine serum and antibiotics. • 4. Cells were counted. • 5. 3x10^5cells were added to each well of a 6-well plate for adherent culture. • 6. The above medium was added and left for approximately 24 hours.
• 7. The cells were washed 2-3 times with buffered saline without Mg2+ and Ca2+ ions. Each time PBS was thoroughly removed. • 8.2 ml of RPMI1640 medium with antibiotics and without serum was added, and left for approximately 24 hours.
• 9. The cells were washed 2-3 times with a buffered saline solution without Mg2+ and Ca2+. PBS was thoroughly removed each time. • 10. […]

Structure (SMILES)	toxicity towards KRASG12V positive cells (SW620) compared to normal cells (NIH/3T3) [1]	toxicity against cancer cells expressing KRASG12V [1]	toxicity against normal cells [2]	influence on the signal transduction pathway [3]
O=C(Nc1ccc2c(c1)OCCO2)c1ccc2c(c1)C1C3CCC(C3)C1C(c1ccccc1)N2 (centres unmarked) [PER154A]	about 85 times	toxicity	no toxicity	No impact; also recorded: does not show any influence
O=C(Nc1ccc(F)cc1)c1ccc2c(c1)C1C3CCC(C3)C1C(c1ccccc1)N2 (centres unmarked) [PER160A]	over 36 times	toxicity	no toxicity	No impact; also recorded: does not show any influence
